In paper PMC9060607 (RSC Advances, 2019):
Structures can show the parent of a compound that is named as a salt.

Experiments:
plasma esterases [1] = assay: Inhibition of CDD hydrolysis in rat plasma by esterase inhibitors; type: biochemical; settings: for % inhibition of CDD hydrolysis: CDD 1.5 μM, 37 °C, 5 s
plasma esterases [2] = assay: Inhibition of CDD hydrolysis in dog plasma by esterase inhibitors; type: biochemical, beagle dog; settings: for % inhibition of CDD hydrolysis: CDD 1.5 μM, 37 °C, 15 min
plasma esterases [3] = assay: Inhibition of CDD hydrolysis in human plasma by esterase inhibitors; type: biochemical; settings: for % inhibition of CDD hydrolysis: CDD 1.5 μM, 37 °C, 5 min
plasma CES = settings: rat plasma, inhibitor 10 mM; cited from earlier work

Q: What does the source list for CC(C)NP(=O)(NC(C)C)OP(=O)(NC(C)C)NC(C)C [Iso-OMPA, tetraisopropyl pyrophosphoramide]?
A: % inhibition of CDD hydrolysis (plasma esterases [1]; inhibitor 0.1 mM): 99.5 ± 11.2%; % inhibition of CDD hydrolysis (plasma esterases [1]; inhibitor 0.1 mM, listed as iso-OMPA): > 80%; % inhibition of CDD hydrolysis (plasma esterases [1]; inhibitor 1 mM): 108.3 ± 5.2%; inhibition of CDD hydrolysis (in words) (plasma esterases [2]; concentration not given): fewer than those of the aforementioned esterase inhibitors; % inhibition of CDD hydrolysis (plasma esterases [2]; inhibitor 0.1 mM): 16.9 ± 7.1%; % inhibition of CDD hydrolysis (plasma esterases [2]; inhibitor 1 mM): 17.6 ± 6.7%; inhibition of CDD hydrolysis (in words) (plasma esterases [3]; concentration not given): no inhibition; % inhibition of CDD hydrolysis (plasma esterases [3]; inhibitor 0.1 mM): <10%; % inhibition of CDD hydrolysis (plasma esterases [3]; inhibitor 1 mM): <10%

Q: Which results are given for O=S(=O)(F)Cc1ccccc1 [PMSF, Phenylmethanesulfonyl fluoride]?
A: % inhibition of CDD hydrolysis (plasma esterases [1]; inhibitor 0.1 mM): <10%; % inhibition of CDD hydrolysis (plasma esterases [1]; inhibitor 1 mM): 96.0 ± 9.2%; % inhibition of CDD hydrolysis (plasma esterases [2]; inhibitor 0.1 mM): <10%; % inhibition of CDD hydrolysis (plasma esterases [2]; inhibitor 1 mM): 29.6 ± 5.3%; inhibition of CDD hydrolysis (in words) (plasma esterases [3]; concentration not given): no inhibition; % inhibition of CDD hydrolysis (plasma esterases [3]; inhibitor 0.1 mM): <10%; % inhibition of CDD hydrolysis (plasma esterases [3]; inhibitor 1 mM): <10%; effect on ex vivo hydrolysis of CDD (plasma CES): inhibited

Q: For O=[N+]([O-])c1ccc(OP(=O)(O)Oc2ccc([N+](=O)[O-])cc2)cc1 [BNPP, Bis(4-nitrophenyl) phosphate], which “% inhibition of CDD hydrolysis” value (plasma esterases [1]; inhibitor 0.1 mM) is on record?
A: Its value is 83.0 ± 8.9%.

Q: What about the “% inhibition of CDD hydrolysis” value (plasma esterases [1]; inhibitor 1 mM) of the same molecule?
A: Its value is 97.0 ± 7.7%.

Q: And the “% inhibition of CDD hydrolysis” value (plasma esterases [2]; inhibitor 0.1 mM)?
A: Its value is 16.6 ± 8.2%.

Q: And the “% inhibition of CDD hydrolysis” value (plasma esterases [2]; inhibitor 1 mM)?
A: The value was 63.6 ± 1.8%.

Q: And the “% inhibition of CDD hydrolysis” value (plasma esterases [3]; inhibitor 0.1 mM)?
A: Its value is under 10%.

Q: And the “inhibition of CDD hydrolysis (in words)” value (plasma esterases [3]; inhibitor 1 mM)?
A: The value was “partial inhibition”.

Q: And the “% inhibition of CDD hydrolysis” value (plasma esterases [3]; inhibitor 1 mM)?
A: Its value is 42.2 ± 6.7%.

Q: And the “effect on ex vivo hydrolysis of CDD” value (plasma CES)?
A: The value was “inhibited”.

Q: With CNC(=O)Oc1ccc2c(c1)[C@]1(C)CCN(C)[C@@H]1N2C [Eserine, eserine hemisulfate salt] as the molecule, how does the “inhibition of CDD hydrolysis (in words)” value (plasma esterases [1]; concentration not given) read?
A: The value was “did not prevent”.

Q: What about the “% inhibition of CDD hydrolysis” value (plasma esterases [1]; inhibitor 10 μM) of the same molecule?
A: Its value is under 10%.

Q: And the “% inhibition of CDD hydrolysis” value (plasma esterases [1]; inhibitor 100 μM)?
A: Its value is under 10%.

Q: And the “inhibition of CDD hydrolysis (in words)” value (plasma esterases [2]; concentration not given)?
A: Its value is “no inhibition”.

Q: What about the “% inhibition of CDD hydrolysis” value (plasma esterases [2]; inhibitor 10 μM) of the same molecule?
A: The value was under 10%.

Q: And the “% inhibition of CDD hydrolysis” value (plasma esterases [2]; inhibitor 100 μM)?
A: The value was under 10%.

Q: What about the “inhibition of CDD hydrolysis (in words)” value (plasma esterases [3]; concentration not given) of the same molecule?
A: Its value is “no inhibition”.

Q: And the “% inhibition of CDD hydrolysis” value (plasma esterases [3]; inhibitor 10 μM)?
A: The value was under 10%.

Q: And the “% inhibition of CDD hydrolysis” value (plasma esterases [3]; inhibitor 100 μM)?
A: The value was under 10%.

Q: Which results are given for O=C(O)c1cc(SSc2ccc([N+](=O)[O-])c(C(=O)O)c2)ccc1[N+](=O)[O-] [DTNB, 5,5′-dithiobis-2-nitrobenzoic acid]?
A: inhibition of CDD hydrolysis (in words) (plasma esterases [1]; concentration not given): did not prevent; % inhibition of CDD hydrolysis (plasma esterases [1]; inhibitor 0.1 mM): <10%; % inhibition of CDD hydrolysis (plasma esterases [1]; inhibitor 1 mM): <10%; % inhibition of CDD hydrolysis (plasma esterases [2]; inhibitor 0.1 mM): <10%; inhibition of CDD hydrolysis (in words) (plasma esterases [2]; inhibitor 1 mM): moderate inhibition; % inhibition of CDD hydrolysis (plasma esterases [2]; inhibitor 1 mM): 47.8 ± 0.83%; % inhibition of CDD hydrolysis (plasma esterases [3]; inhibitor 0.1 mM): <10%; inhibition of CDD hydrolysis (in words) (plasma esterases [3]; inhibitor 1 mM): moderate inhibition; % inhibition of CDD hydrolysis (plasma esterases [3]; inhibitor 1 mM): 52.0 ± 1.5%

Q: Which “% inhibition of CDD hydrolysis” value (plasma esterases [1]; inhibitor 5 mM) does the source give for O=C(O)CN(CCOCCOCCN(CC(=O)O)CC(=O)O)CC(=O)O [EGTA, ethyleneglycol-bis(2-aminoethylether)-tetraacetic acid] here?
A: Its value is under 10%.

Q: What about the “% inhibition of CDD hydrolysis” value (plasma esterases [1]; inhibitor 10 mM) of the same molecule?
A: Its value is under 10%.

Q: What about the “inhibition of CDD hydrolysis (in words)” value (plasma esterases [2]; concentration not given) of the same molecule?
A: The value was “fewer than those of the aforementioned esterase inhibitors”.

Q: And the “% inhibition of CDD hydrolysis” value (plasma esterases [2]; inhibitor 5 mM)?
A: The value was 17.3 ± 6.1%.

Q: What about the “% inhibition of CDD hydrolysis” value (plasma esterases [2]; inhibitor 10 mM) of the same molecule?
A: Its value is 19.9 ± 8.0%.

Q: And the “inhibition of CDD hydrolysis (in words)” value (plasma esterases [3]; concentration not given)?
A: Its value is “partially inhibited”.

Q: And the “% inhibition of CDD hydrolysis” value (plasma esterases [3]; inhibitor 5 mM)?
A: Its value is 23.2 ± 11.4%.

Q: And the “% inhibition of CDD hydrolysis” value (plasma esterases [3]; inhibitor 10 mM)?
A: Its value is 26.5 ± 3.6%.

Q: For O=C([O-])CN(CCN(CC(=O)[O-])CC(=O)O)CC(=O)O.[Na+].[Na+] [EDTA, Ethylenediaminetetraacetic acid disodium], which “inhibition of CDD hydrolysis (in words)” value (plasma esterases [1]; concentration not given) is on record?
A: The value was “did not prevent”.

Q: And the “% inhibition of CDD hydrolysis” value (plasma esterases [1]; inhibitor 5 mM)?
A: Its value is under 10%.

Q: What about the “% inhibition of CDD hydrolysis” value (plasma esterases [1]; inhibitor 10 mM) of the same molecule?
A: The value was under 10%.

Q: What about the “inhibition of CDD hydrolysis (in words)” value (plasma esterases [2]; concentration not given) of the same molecule?
A: Its value is “no inhibition”.

Q: And the “% inhibition of CDD hydrolysis” value (plasma esterases [2]; inhibitor 5 mM)?
A: The value was under 10%.

Q: And the “% inhibition of CDD hydrolysis” value (plasma esterases [2]; inhibitor 10 mM)?
A: The value was under 10%.

Q: What about the “inhibition of CDD hydrolysis (in words)” value (plasma esterases [3]; concentration not given) of the same molecule?
A: Its value is “no inhibition”.

Q: What about the “% inhibition of CDD hydrolysis” value (plasma esterases [3]; inhibitor 5 mM) of the same molecule?
A: Its value is under 10%.

Q: What about the “% inhibition of CDD hydrolysis” value (plasma esterases [3]; inhibitor 10 mM) of the same molecule?
A: Its value is under 10%.

Q: For [F-].[Na+] [NaF, Sodium fluoride], which “% inhibition of CDD hydrolysis” value (plasma esterases [1]; inhibitor 5 mM) is on record?
A: Its value is under 10%.

Q: What about the “inhibition of CDD hydrolysis (in words)” value (plasma esterases [1]; inhibitor 10 mM) of the same molecule?
A: The value was “partially prevented”.

Q: What about the “% inhibition of CDD hydrolysis” value (plasma esterases [1]; inhibitor 10 mM) of the same molecule?
A: The value was 24.4 ± 7.1%.

Q: And the “inhibition of CDD hydrolysis (in words)” value (plasma esterases [2]; concentration not given)?
A: Its value is “no inhibition”.

Q: And the “% inhibition of CDD hydrolysis” value (plasma esterases [2]; inhibitor 5 mM)?
A: The value was under 10%.

Q: What about the “% inhibition of CDD hydrolysis” value (plasma esterases [2]; inhibitor 10 mM) of the same molecule?
A: The value was under 10%.

Q: And the “inhibition of CDD hydrolysis (in words)” value (plasma esterases [3]; concentration not given)?
A: The value was “no inhibition”.

Q: And the “% inhibition of CDD hydrolysis” value (plasma esterases [3]; inhibitor 5 mM)?
A: Its value is under 10%.

Q: And the “% inhibition of CDD hydrolysis” value (plasma esterases [3]; inhibitor 10 mM)?
A: Its value is under 10%.

Q: What does the source list for C=CC[N+](C)(C)c1ccc(CCC(=O)CCc2ccc([N+](C)(C)CC=C)cc2)cc1.[Br-].[Br-] [BW284c51, 1,5-bis(4-allyldimethylammoniumphenyl)pentan-3-one dibromide]?
A: inhibition of CDD hydrolysis (in words) (plasma esterases [1]; concentration not given): did not prevent; % inhibition of CDD hydrolysis (plasma esterases [1]; inhibitor 10 μM): <10%; % inhibition of CDD hydrolysis (plasma esterases [1]; inhibitor 100 μM): <10%; inhibition of CDD hydrolysis (in words) (plasma esterases [2]; concentration not given): no inhibition; % inhibition of CDD hydrolysis (plasma esterases [2]; inhibitor 10 μM): <10%; % inhibition of CDD hydrolysis (plasma esterases [2]; inhibitor 100 μM): <10%; inhibition of CDD hydrolysis (in words) (plasma esterases [3]; concentration not given): no inhibition; % inhibition of CDD hydrolysis (plasma esterases [3]; inhibitor 10 μM): <10%; % inhibition of CDD hydrolysis (plasma esterases [3]; inhibitor 100 μM): <10%

Q: For Cl.NCCc1ccc(S(=O)(=O)F)cc1 [Pefabloc® SC, 4-(2-aminoethyl-)benzenesulphonylfloride hydrochloride], which “% inhibition of CDD hydrolysis” value (plasma esterases [1]; inhibitor 0.1 mM) is on record?
A: Its value is 19.4 ± 2.1%.

Q: And the “% inhibition of CDD hydrolysis” value (plasma esterases [1]; inhibitor 1 mM)?
A: The value was 99.8 ± 7.9%.

Q: What about the “% inhibition of CDD hydrolysis” value (plasma esterases [2]; inhibitor 0.1 mM) of the same molecule?
A: The value was under 10%.

Q: What about the “% inhibition of CDD hydrolysis” value (plasma esterases [2]; inhibitor 1 mM) of the same molecule?
A: Its value is 25.8 ± 3.1%.

Q: What about the “inhibition of CDD hydrolysis (in words)” value (plasma esterases [3]; concentration not given) of the same molecule?
A: Its value is “no inhibition”.

Q: And the “% inhibition of CDD hydrolysis” value (plasma esterases [3]; inhibitor 0.1 mM)?
A: The value was under 10%.

Q: What about the “% inhibition of CDD hydrolysis” value (plasma esterases [3]; inhibitor 1 mM) of the same molecule?
A: The value was under 10%.

Q: Which results are given for Cc1ccc(S(=O)(=O)N[C@@H](CCCCN)C(=O)CCl)cc1.Cl [TLCK, N-α-tosyl-L-lysine chloromethylketone hydrochloride]?
A: inhibition of CDD hydrolysis (in words) (plasma esterases [1]; concentration not given): did not prevent; % inhibition of CDD hydrolysis (plasma esterases [1]; inhibitor 0.1 mM): <10%; % inhibition of CDD hydrolysis (plasma esterases [1]; inhibitor 1 mM): <10%; % inhibition of CDD hydrolysis (plasma esterases [2]; inhibitor 0.1 mM): <10%; % inhibition of CDD hydrolysis (plasma esterases [2]; inhibitor 1 mM): 17.0 ± 10.3%; inhibition of CDD hydrolysis (in words) (plasma esterases [3]; concentration not given): no inhibition; % inhibition of CDD hydrolysis (plasma esterases [3]; inhibitor 0.1 mM): <10%; % inhibition of CDD hydrolysis (plasma esterases [3]; inhibitor 1 mM): <10%
